The values that follow come from publication PMC3509768 (Journal of medicinal chemistry, 2012).

What all share (type): biochemical
The target in one experiment is T1, huMIF (Homo sapiens, UniProt P14174).
T1 sequence (P14174 2-115 limits assumed): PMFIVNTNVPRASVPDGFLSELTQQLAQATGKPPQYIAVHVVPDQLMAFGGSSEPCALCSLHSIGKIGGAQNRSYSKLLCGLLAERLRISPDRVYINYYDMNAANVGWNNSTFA
Put plainly: Michaelis-Menten kinetics of 4-HPP tautomerization by huMIF.

The target in experiment [1] is T2, PfMIF (Plasmodium falciparum, UniProt Q8I5C5). The experiment is described as follows: Michaelis-Menten kinetics of 4-HPP tautomerization by PfMIF.
The target of experiment [2] is T2, PfMIF. The experiment is described as follows: biochemical. The note with it: for PfMIF tautomerase inhibitory activity (active / inactive): result in words.

Usually Km stands for the substrate concentration at which the rate is half of its maximum. One may read the kcat as the number of substrate molecules converted per active site and unit of time at saturation. As to `O=C(O)C(=O)Cc1ccc(O)cc1` [Compound 4-HPP, 4-hydroxyphenylpyruvate], the Km came to 1140 ± 216 µM at huMIF (enolization), 192 ± 47 µM on huMIF (ketonization), 675 ± 46.9 µM at PfMIF [1] (enolization) and 187 ± 50.6 µM at PfMIF [1] (ketonization). The turnover number (kcat) at huMIF (enolization) came to 208.3 ± 19.3 s⁻¹; on huMIF (ketonization), 86.62 ± 11.7 s⁻¹; at PfMIF [1] (enolization), 17.98 ± 0.7 s⁻¹; on PfMIF [1] (ketonization) it was 32.90 ± 5.3 s⁻¹.

For `Cc1cc(Oc2cccc(O)c2)nc(-c2ccccc2)n1` [Compound 20], on PfMIF [2] (ratio of PfMIF Ki values), the “times less potent than 25h” value is “more than 400”. In addition, the “PfMIF tautomerase inhibitory activity (active / inactive)” value at PfMIF [2] is reported as “active”.

For `COc1cccc(Oc2ccnc(N3CCOCC3)c2)c1` [Compound 23], at PfMIF [2], the “PfMIF tautomerase inhibitory activity (active / inactive)” value was “active”.

As to `Oc1cccc(Oc2ccc(-c3cccc(O)c3)nc2)c1` [Compound 24d], at PfMIF [2], the “PfMIF tautomerase inhibitory activity (active / inactive)” value was “active”.

Consider `Oc1ccc(-c2ccc(Oc3cccc(O)c3)cn2)cc1` [Compound 24e], for which the “PfMIF tautomerase inhibitory activity (active / inactive)” value at PfMIF [2] was “active”.

Consider `N#Cc1cccc(Oc2ccc(-c3cccc(O)c3)nc2)c1` [Compound 24j], for which the “times more potent than the 3-hydroxyl analogue 24d” value at PfMIF [2] (ratio of PfMIF Ki values) is given as “roughly 20”.

A word on the Ki: it is the equilibrium dissociation constant of an inhibitor or competing ligand from its target. Higher therefore signals a looser hold on the target. As to `COc1cc(C)cc(Oc2cc(C)nc(N3CCOCC3)c2)c1` [Compound 25f], the inhibition constant Ki at PfMIF [2] worked out at 1 µM.

`COc1cccc(Oc2cc(C)nc(N3CCOCC3)c2)c1` [Compound 25h] gave a Ki on PfMIF [2] of approximately 0.04 µM.

In turn, `COc1ccc(-c2cc(Oc3cc(C)cc(OC)c3)cc(C)n2)cc1` [Compound 26k] displayed an inhibitory constant (Ki) at PfMIF [2] of approximately 0.04 µM.
